Where a SMILES comes first, the peptide text is derived from it. Bridges are numbered along the chain shown (N, C = ends). [ ]: non-standard residue; d: D form. The star is where a group is joined. X1 = CC[C@H](C)CCCCC(=O)*; Dab = NCC[C@H](N)C(=O)O
Key:
E. Faecium = assay: microbe, parasite or virus in culture; format: cell-based, Enterococcus Facium
Protocol: Bacterial clinical isolates, used for initial screening and in previous studies ([Deslouches et al., 2013]; [Lin et al., 2018]), were anonymously provided by the clinical microbiology laboratory of the University of Pittsburgh medical Center. The panel used for secondary screening was from [CDC (2013)] (Supplementary Table 3), with resistance profiles data. Bacteria are stored in lock-secured –80°C freezer and typically retrieved by obtaining single colonies on agar plates prior for subsequent liquid broth cultures. Suspensions of test bacteria were prepared from log phase of growth by diluting overnight cultures at 1:100 with fresh cation-adjusted MHB (MHB2, Millipore Sigma, United States) and incubating for additional 3–4 h. Bacteria were spun at 3,000 × g for 10 min and the pellet resuspended in test condition media (Millipore Sigma, United States) to determine bacterial turbidity using a Den-1B densitometer (Grant Instruments, United States) at 0.5 McFarland (unit of bacterial density) corresponding to […].
To examine antibacterial activity, we used minor modifications of a standard growth inhibition assay endorsed by the Clinical and Laboratory Standards Institute (CLSI), as previously described ([Deslouches et al., 2013]). Bacteria were incubated with each of the indicated peptides in MHB2. The bacterial cells were kept in an incubator for 18 h at 37°C, which is linked to a robotic system that feeds a plate reader every hour with one of 8 × 96-well plates. This set-up allows the collection of growth kinetic data at A 570 (absorbance at 570 nm) to examine growth inhibition in real time (BioTek Instruments, United States). […] The assays are typically repeated a second time. If the MIC is different, a third experimental trial is performed to confirm the MIC. To assess bactericidal properties of the peptide, the assay was modified by using 15% fetal bovine serum (FBS, for a more physiologically relevant test condition) mixed with 25% MHB2 and 60% PBS. Bacterial cells (colony forming unit/mL or CFU/mL) were enumerated after incubating treated bacteria for 3 h and plating serially diluted samples on broth agar medium at 37°C overnight. Minimum bactericidal concentration (MBC) was determined as the peptide concentration at which complete bacterial killing was observed. […] Data were analyzed using GraphPad Prism software.

MDR strain PA239 = assay: Propidium iodide incorporation by flow cytometry; format: cell-based, Pseudomonas aeruginosa; conditions: 2 μM, treated for 3 h
Text: To examine whether the selected peptides kill their bacterial target mainly by membrane permeabilization, we used PI incorporation by the MDR strain PA239 (5 × 10^8 CFU/mL) quantitated by flow cytometry (Novocyte, United States) or visualized by video imaging using the digital microscope EVOS M7000 (Thermo Fisher Scientific, United States) in bright field or red fluorescence channel. In the flow cytometry experiments ([Di et al., 2020]), bacterial cells were either untreated or treated with different peptide E35 concentrations in MHB2 for 1 h at 37°C. We washed the bacteria-peptide mixture with PBS using an Eppendorf centrifuge at top speed for 7 min and incubated with PI in the dark for 15 min at room temperature. Tobramycin was used as a negative control with a 3-h long incubation. For video imaging, the broth medium was reduced to 20% in PBS (treated or untreated) to decrease the rate of cell division and PI incorporation assessed over time. Video images were recorded in real time using the 40× objective either in bright field or red fluorescence channel.

[1] = test system: P. aeruginosa strain PA239; assay: Bactericidal assay (MBC) in FBS-containing medium FMP; format: cell-based; conditions: within 3h of incubation
Protocol: Bacteria were incubated with each of the indicated peptides in MHB2. […] To assess bactericidal properties of the peptide, the assay was modified by using 15% fetal bovine serum (FBS, for a more physiologically relevant test condition) mixed with 25% MHB2 and 60% PBS. […] Data were analyzed using GraphPad Prism software.

SMILES	MIC (E. Faecium; strain EF500, CDC clinical strain, confirmed by a second or third experimental trial) [µM]	MIC (E. Faecium; strain EF671, CDC clinical strain, confirmed by a second or third experimental trial) [µM]	MIC (E. Faecium; strain EF672, CDC clinical strain, confirmed by a second or third experimental trial) [µM]	MIC (E. Faecium; strain EF673, CDC clinical strain, confirmed by a second or third experimental trial) [µM]	MIC (E. Faecium; strain EF23614, UPMC, MHB2, 18 h, 37°C) [µM]	MIC (E. Faecium; strain EF26215, UPMC, MHB2, 18 h, 37°C) [µM]	MIC (E. Faecium; strain EF26692, UPMC, MHB2, 18 h, 37°C) [µM]	PI incorporation (MDR strain PA239) [%]	bacterial killing [1]
CC[C@H](C)CCCCC(=O)N[C@@H](CCN)C(=O)N[C@H](C(=O)N[C@@H](CCN)C(=O)N[C@H]1CCNC(=O)[C@H]([C@@H](C)O)NC(=O)[C@H](CCN)NC(=O)[C@H](CCN)NC(=O)[C@H](CC(C)C)NC(=O)[C@@H](CC(C)C)NC(=O)[C@H](CCN)NC1=O)[C@@H](C)O [Colistin, reference compound] (X1-[Dab]T[Dab][Dab][Dab][dL]L[Dab][Dab]T; lactam 4-C (inferred); N-terminus assumed)	>16	>16	>16	>16	>16	>16	>16	–	–
NC[C@H]1O[C@H](O[C@H]2[C@H](O)[C@@H](O[C@H]3O[C@H](CO)[C@@H](O)[C@H](N)[C@H]3O)[C@H](N)C[C@@H]2N)[C@H](N)C[C@@H]1O [Tobramycin, reference compound]	–	–	–	–	–	–	–	29	did not display any substantial bacterial killing

Source: PMC9186412, “Rational Framework for the Design of Trp- and Arg-Rich Peptide Antibiotics Against Multidrug-Resistant Bacteria” (Frontiers in Microbiology, 2022)
